# Laboratory results reported in US20240374646A1, “COMPOSITION FOR INHIBITING INFLAMMATION OR AGING OF STEM CELLS, AND METHOD FOR INHIBITING INFLAMMATION OR AGING BY USING SAME” (MITOIMMUNE THERAPEUTICS INC., priority 2021, published 2024).
# Legend:
# [1] = test system: TNF-α/IFN-γ-exposed hPD-MSCs; assay: MSC morphology: bright-field and phalloidin/Hoechst fluorescence images; type: cell-based, human; conditions: hPD-MSCs with 2.5 ng/mL TNF-α and 25 ng/mL IFN-γ, 24 hours; FIG. 1A
# Protocol: Human placenta-derived mesenchymal stem cells (hPD-MSCs) were harvested from inside the placental chorion, and the harvested cells were cultured in an alpha-Minimum Essential medium (Cytiva, Marlborough, MA, USA) supplemented with 10% fetal bovine serum (ThermoFisher, Waltham, MA, USA), 1% penicillin/streptomycin (ThermoFisher, Waltham, MA, USA), 25 ng/mL human fibroblast growth factor-4 (Peprotech, Rocky Hill, NJ, USA) and 1 μg/mL heparin (Merck, San Francisco, CA, USA). A total of 1×10^5 hPD-MSCs were seeded in a cell culture dish (90×20 mm) (SPL, Pocheon, Korea) and cultured at 37° C. in an incubator containing 5% CO2. The cells were subcultured every 4 days until reaching 70 to 80% confluency. Expanded cells were obtained at passage 12 or 13. During subculture, viable cells were stained with Trypan blue (Merck) and the number of cells was manually counted. […] The morphology of MSCs was confirmed by bright-field images and fluorescence microscope images, stained cells were identified by phalloidin, which specifically labels the F-actin structure, and Hoechst 33342, which labels nuclei, in the fluorescence image, and the results are shown in FIG. 1A. […]
# [2] = test system: TNF-α/IFN-γ-exposed hPD-MSCs; assay: Cell viability at each concentration of the example compound; type: cell-based; conditions: TNF-α/IFN-γ exposure, different concentrations of compound; FIG. 1D
# Protocol: Human placenta-derived mesenchymal stem cells (hPD-MSCs) were harvested from inside the placental chorion, and the harvested cells were cultured in an alpha-Minimum Essential medium (Cytiva, Marlborough, MA, USA) supplemented with 10% fetal bovine serum (ThermoFisher, Waltham, MA, USA), 1% penicillin/streptomycin (ThermoFisher, Waltham, MA, USA), 25 ng/mL human fibroblast growth factor-4 (Peprotech, Rocky Hill, NJ, USA) and 1 μg/mL heparin (Merck, San Francisco, CA, USA). A total of 1×10^5 hPD-MSCs were seeded in a cell culture dish (90×20 mm) (SPL, Pocheon, Korea) and cultured at 37° C. in an incubator containing 5% CO2. The cells were subcultured every 4 days until reaching 70 to 80% confluency. Expanded cells were obtained at passage 12 or 13. During subculture, viable cells were stained with Trypan blue (Merck) and the number of cells was manually counted.
# In a passage for sample extraction, hPD-MSCs were cultured for 24 hours in a medium with or without an example compound (5-[(1,1-dioxido-4-thiomorpholinyl)methyl]-2-phenyl-N-(tetrahydro-2H-pyran-4-yl)-1H-indole-7-amine) while including 2.5 ng/mL TNF-α (Peprotech) and 25 ng/mL IFN-γ (Peprotech).
# Meanwhile, upon exposure to TNF-α/IFN-γ and treatment with the example compound, cell viability was evaluated, and the results are shown in FIG. 1D.
# [3] = test system: TNF-α/IFN-γ-exposed hPD-MSCs; assay: Mitochondrial membrane potential and distribution, MitoSpy confocal microscopy; type: cell-based, human; conditions: TNF-α/IFN-γ-exposed MSCs treated with compound; FIG. 2A
# Protocol: hPD-MSCs were stained with MitoSpy Orange CMTMRos (BioLegend, SanDiego, CA, USA) to observe mitochondrial membrane potential, and stained with […]. After 72 hours with or without […] treatment, hPD-MSCs were passaged on a gelatin-coated cover glass (Sigma, St. Louis, Missouri, USA) in 12-well plates (SPL) and stained 24 hours later. The hPD-MSCs were cultured in α-MEM containing 250 nM MitoSpy Green FM and 250 nM MitoSpy Orange CMTMRo for 30 minutes. Stained hPD-MSCs were fixed with 4% paraformaldehyde (Alfa Aesar, Ward Hill, Massachusetts, USA) for 5 minutes, and then stained with 1 μg/mL Hoechst 33342® (ThermoFisher) at room temperature for 5 minutes. Finally, the cover glass was mounted on a slide glass using a mounting solution (VectaShield, ThermoFisher) and samples were imaged with a confocal microscope (LSM880; Zeiss, Oberkochen, Germany). The fluorescence intensities of confocal images were quantified using ZEN 2018 Black and Blue edition software (Zeiss). […]
# mitofusion 2 (MFN2) = assay: Real-time qPCR, mitochondrial dynamics gene MFN2; type: cell-based, human; conditions: vs TNF-α/IFN-γ-exposed MSC control (TI); FIG. 2B
# Protocol: Real-time qPCR was performed using an Easy-Spin Total RNA Kit (iNtRON, Seongnam, Korea) to extract total RNA from hPD-MSCs and RNA concentration was adjusted to 100 ng/μL using a microplate spectrophotometer (Epoch™ Microplate Spectrophotometer, BioTek, Winooski, VT, USA), and the extracted RNA was reverse transcribed into cDNA using RT PreMix (dT20) (Bioneer, Seoul, Korea) using a SimpliAmp Thermal Cycler (Life Technologies, Carlsbad, CA, USA). Real-time qPCR was performed using a real-time PCR machine (CFX Connect, Bio-Rad, Hercules, CA, USA), SYBR Green Supermix (Bio-Rad) and the relevant primers, and all experiments were performed in triplicate for statistical analysis.
# To investigate mitochondrial dynamics, real-time qPCR was performed to analyze the expression of dynamin-related protein 1 (DRP1), which is a mitochondrial division-related gene, and mitofusion 1 (MFN1) and mitofusion 2 (MFN2), which are […] mitochondrial membrane fusion-related genes. As the real-time qPCR analysis method, the same method described in Experimental Example 1-2 above was used, and the results are shown in FIG. 2B.
compound,measurement,setting,value
"O=S1(=O)CCN(Cc2cc(NC3CCOCC3)c3[nH]c(-c4ccccc4)cc3c2)CC1 [example compound, 5-[(1,1-dioxido-4-thiomorpholinyl)methyl]-2-phenyl-N-(tetrahydro-2H-pyran-4-yl)-1H-indole-7-amine]",abnormal morphology and disorganized microfilaments (F-actin cytoskeletal structure),[1],remarkably improved to levels similar to those of the untreated MSC control
same,cell viability,[2],high
same,mitochondrial membrane potential and distribution,[3],restored to quiescence
same,reduction of MFN2 expression,mitofusion 2 (MFN2),~50%
